The record followed here is PubChem BioAssay AID256 (DTP/NCI, 2004).

Where “and” joins values, the source holds several entries; their conditions need not be identical. Equal entries are not always repeated. Inconclusive results and toxic doses are left out.

For the assay, the system named is CD2F1 mice, L1210 leukemia ip, survival T/C. The experiment in a line: NCI In Vivo Anticancer Drug Screen. Data for tumor model L1210 Leukemia (intraperitoneal) in CD2F1 (CDF1) mice. As to conditions: higher = longer survival. The method in brief:
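Antitumor effect is scored in animals hosting a serially transplanted tumor. Values compare compound-dosed animals against vehicle-only controls as a simple quotient.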

Where [1] appears, read: endpoint: mean survival time, dose: 100.0 mg/kg/injection, schedule: Q01DX009 (ip), vehicle: saline.
[2] abbreviates: endpoint: mean survival time, dose: 100.0 mg/kg/injection, schedule: Q04DX003 (ip), vehicle: saline.
Where [3] appears, read: endpoint: mean survival time, dose: 200.0 mg/kg/injection, schedule: Q04DX003 (ip), vehicle: saline.
The mark [4] stands for this setting: endpoint: mean survival time, dose: 400.0 mg/kg/injection, schedule: Q04DX003 (ip), vehicle: saline.
Where [5] appears, read: endpoint: mean survival time, dose: 100.0 mg/kg/injection, schedule: Q01DX009 (ip), vehicle: saline with Tween-80.
Where [6] appears, read: endpoint: mean survival time, dose: 100.0 mg/kg/injection, schedule: Q04DX003 (ip), vehicle: saline with Tween-80.
[7] abbreviates: endpoint: mean survival time, dose: 200.0 mg/kg/injection, schedule: Q01DX009 (ip), vehicle: saline with Tween-80.
Setting [8] is: endpoint: mean survival time, dose: 200.0 mg/kg/injection, schedule: Q04DX003 (ip), vehicle: saline with Tween-80.
Setting [9] is: endpoint: mean survival time, dose: 400.0 mg/kg/injection, schedule: Q01DX009 (ip), vehicle: saline with Tween-80.
The mark [10] stands for this setting: endpoint: mean survival time, dose: 400.0 mg/kg/injection, schedule: Q04DX003 (ip), vehicle: saline with Tween-80.
Setting [11] is: endpoint: mean survival time, dose: 100.0 mg/kg/injection, schedule: Q04DX002 (ip), vehicle: saline with Tween-80.
The mark [12] stands for this setting: endpoint: mean survival time, dose: 200.0 mg/kg/injection, schedule: Q04DX002 (ip), vehicle: saline with Tween-80.
The mark [13] stands for this setting: endpoint: mean survival time, dose: 400.0 mg/kg/injection, schedule: Q04DX002 (ip), vehicle: saline with Tween-80.
Setting [14] is: endpoint: mean survival time, dose: 100.0 mg/kg/injection, schedule: Q01DX001 (ip), vehicle: saline.
Setting [15] is: endpoint: mean survival time, dose: 200.0 mg/kg/injection, schedule: Q01DX001 (ip), vehicle: saline.
[16] abbreviates: endpoint: mean survival time, dose: 100.0 mg/kg/injection, schedule: Q04DX002 (ip), vehicle: saline.
Setting [17] is: endpoint: mean survival time, dose: 200.0 mg/kg/injection, schedule: Q04DX002 (ip), vehicle: saline.

On to `CC(C)(CO)NC(=O)CCO`, for which the T/C is, setting by setting: under setting [1], 101 % of control; under setting [2], 97 % of control; (endpoint: mean survival time, dose: 200.0 mg/kg/injection, schedule: Q01DX009 (ip), vehicle: saline) 103 % of control; under setting [3], 98 % of control; (endpoint: mean survival time, dose: 400.0 mg/kg/injection, schedule: Q01DX009 (ip), vehicle: saline) 104 % of control; under setting [4], 101 % of control.
In the case of `CO/N=C(\N)c1ncn(C2OC3COP(=O)(O)OC3C2O)c1N` (stereo unspecified), the T/C (endpoint: median survival time, dose: 49.8 mg/kg/injection, schedule: Q01DX005 (ip), vehicle: saline) was 98 % of control; the T/C (endpoint: median survival time, dose: 99.5 mg/kg/injection, schedule: Q01DX005 (ip), vehicle: saline) is 100 % of control; the T/C (endpoint: median survival time, dose: 199.1 mg/kg/injection, schedule: Q01DX005 (ip), vehicle: saline) is 96 % of control.
As for `Cc1cc(Cl)ccc1NC(=O)CCl`, the T/C by setting is: under setting [5], 93 % of control; under setting [6], 100 % of control; under setting [7], 88 % of control; under setting [8], 105 % of control; under setting [9], 96 % of control; under setting [10], 92 % of control.
Consider `COc1c(C)c2c(c(OC(C)=O)c1CC(=O)C(C)(O)CCC(=O)O)C(=O)OC2` (stereo unspecified), for which the T/C under setting [11] is 103 % of control, the T/C under setting [12] is 96 % of control and the T/C under setting [13] is 112 % of control.
Take `CCN(CC)c1ccc2c(-c3ccccc3C(=O)O)c3ccc(=[N+](CC)CC)cc-3oc2c1`: the T/C was 105 % of control (endpoint: mean survival time, dose: 5.0 mg/kg/injection, schedule: Q04DX003 (ip), vehicle: saline with Tween-80); 105 % of control (endpoint: mean survival time, dose: 10.0 mg/kg/injection, schedule: Q04DX003 (ip), vehicle: saline with Tween-80); 102 % of control (endpoint: mean survival time, dose: 20.0 mg/kg/injection, schedule: Q04DX003 (ip), vehicle: saline with Tween-80); 101 % of control under setting [5]; 103 % of control under setting [7]; 100 % of control under setting [9].
As to `O=NN(CCF)C(=O)NC1C(O)CCCC1O` (stereo unspecified), the T/C was 120 % of control (endpoint: median survival time, dose: 1.25 mg/kg/injection, schedule: Q01DX001 (ip), vehicle: saline); 116 % of control (endpoint: median survival time, dose: 2.5 mg/kg/injection, schedule: Q01DX001 (ip), vehicle: saline); 160 % of control (endpoint: median survival time, dose: 5.0 mg/kg/injection, schedule: Q01DX001 (ip), vehicle: saline); 178 % of control (endpoint: median survival time, dose: 5.0 mg/kg/injection, schedule: Q04DX002 (ip), vehicle: saline); 168 % of control (endpoint: median survival time, dose: 10.0 mg/kg/injection, schedule: Q01DX001 (ip), vehicle: saline); 231 % of control and 232 % of control (endpoint: median survival time, dose: 10.0 mg/kg/injection, schedule: Q04DX002 (ip), vehicle: saline). Also, the T/C runs as follows: (endpoint: median survival time, dose: 20.0 mg/kg/injection, schedule: Q01DX001 (ip), vehicle: saline) 337 % of control; (endpoint: median survival time, dose: 20.0 mg/kg/injection, schedule: Q04DX002 (ip), vehicle: saline) 361 % of control and 365 % of control; (endpoint: median survival time, dose: 40.0 mg/kg/injection, schedule: Q01DX001 (ip), vehicle: saline) 337 % of control; (endpoint: median survival time, dose: 40.0 mg/kg/injection, schedule: Q04DX002 (ip), vehicle: saline) 182 % of control and 361 % of control.
As for `CCCCSP(=O)(CCl)SCCCC`, the T/C runs as follows: (endpoint: mean survival time, dose: 25.0 mg/kg/injection, schedule: Q04DX002 (ip), vehicle: saline with Tween-80) 93 % of control; (endpoint: mean survival time, dose: 50.0 mg/kg/injection, schedule: Q04DX002 (ip), vehicle: saline with Tween-80) 97 % of control; under setting [11], 93 % of control.
Take `c1ccc(NC2CCN(C3(c4ccccc4)CCCCC3)CC2)cc1`: the T/C runs as follows: (endpoint: mean survival time, dose: 25.0 mg/kg/injection, schedule: Q04DX002 (ip), vehicle: saline) 97 % of control; (endpoint: mean survival time, dose: 50.0 mg/kg/injection, schedule: Q04DX002 (ip), vehicle: saline) 94 % of control.
Turning to `O=S(=O)(Cl)c1cccc2cc3ccccc3cc12`, the T/C under setting [2] is 109 % of control, the T/C under setting [3] was 97 % of control and the T/C under setting [4] is 103 % of control.
As for `COc1ccc(CCNC2CCCCC2O)cc1OC` (stereo unspecified), the T/C runs as follows: (endpoint: mean survival time, dose: 75.0 mg/kg/injection, schedule: Q01DX001 (ip), vehicle: saline) 106 % of control; (endpoint: mean survival time, dose: 150.0 mg/kg/injection, schedule: Q01DX001 (ip), vehicle: saline) 98 % of control; (endpoint: mean survival time, dose: 300.0 mg/kg/injection, schedule: Q01DX001 (ip), vehicle: saline) 104 % of control.
Take `C[N+](C)(C)c1cccc(S)c1`: the T/C reads like this: under setting [11], 104 % of control; under setting [12], 112 % of control; under setting [13], 100 % of control.
On to `CC1(C)CN(c2ccccc2)NC1=O`, for which the T/C (endpoint: mean survival time, dose: 1.25 mg/kg/injection, schedule: Q01DX009 (ip), vehicle: Klucel (hydroxypropylcellulose) (HPC)) was 101 % of control; the T/C (endpoint: mean survival time, dose: 2.5 mg/kg/injection, schedule: Q01DX009 (ip), vehicle: Klucel (hydroxypropylcellulose) (HPC)) was 98 % of control; the T/C (endpoint: mean survival time, dose: 5.0 mg/kg/injection, schedule: Q01DX009 (ip), vehicle: Klucel (hydroxypropylcellulose) (HPC)) is 101 % of control.
In the case of `CN(C)/N=C(\CBr)c1ccc([N+](=O)[O-])cc1`, the T/C under setting [14] is 100 % of control and the T/C under setting [15] is 94 % of control.
Regarding `CC/C(=C(/CC)c1ccc(OP(N)(=O)N(CCCl)CCCl)cc1)c1ccc(OP(N)(=O)N(CCCl)CCCl)cc1` (stereo unspecified), the T/C by setting is: (endpoint: mean survival time, dose: 90.0 mg/kg/injection, schedule: Q01DX001 (ip), vehicle: DMSO) 100 % of control; (endpoint: mean survival time, dose: 133.0 mg/kg/injection, schedule: Q01DX001 (ip), vehicle: DMSO) 98 % of control; (endpoint: mean survival time, dose: 200.0 mg/kg/injection, schedule: Q01DX001 (ip), vehicle: DMSO) 102 % of control; (endpoint: mean survival time, dose: 300.0 mg/kg/injection, schedule: Q01DX001 (ip), vehicle: DMSO) 113 % of control.
As for `OC(COc1ccc(Cl)cc1Cl)COc1ccc(Cl)cc1Cl`, the T/C under setting [6] is 95 % of control, the T/C under setting [8] is 92 % of control and the T/C under setting [10] is 93 % of control.
As to `O=C(O)CN(CCO)CCO`, the T/C under setting [2] is 100 % of control, the T/C under setting [3] was 102 % of control and the T/C under setting [4] is 102 % of control.
In the case of `C1CCN(P(N2CCCCC2)N2CCCCC2)CC1`, the T/C was 92 % of control under setting [16] and 92 % of control under setting [17].
Turning to `NC(=O)C1(C(N)=O)CC1`, the T/C by setting is: under setting [16], 108 % of control; under setting [17], 104 % of control; (endpoint: mean survival time, dose: 400.0 mg/kg/injection, schedule: Q04DX002 (ip), vehicle: saline) 100 % of control.
Take `C#CC12CCCCN1CCC2` (stereo unspecified): the T/C under setting [14] was 93 % of control and the T/C under setting [15] is 97 % of control.
Turning to `C=CCOCC(O)CN1CCCCC1` (stereo unspecified), the T/C was 116 % of control (endpoint: mean survival time, dose: 50.0 mg/kg/injection, schedule: Q01DX009 (ip), vehicle: saline) and 96 % of control under setting [1].
Regarding `Cc1ccc(S(=O)(=O)OCOS(=O)(=O)c2ccc(C)cc2)cc1`, the T/C runs as follows: (endpoint: median survival time, dose: 50.0 mg/kg/injection, schedule: Q01DX009 (ip), vehicle: Klucel (hydroxypropylcellulose) (HPC)) 113 % of control; (endpoint: median survival time, dose: 100.0 mg/kg/injection, schedule: Q01DX009 (ip), vehicle: Klucel (hydroxypropylcellulose) (HPC)) 107 % of control and 111 % of control; (endpoint: median survival time, dose: 200.0 mg/kg/injection, schedule: Q01DX009 (ip), vehicle: Klucel (hydroxypropylcellulose) (HPC)) 122 % of control and 112 % of control; (endpoint: median survival time, dose: 800.0 mg/kg/injection, schedule: Q01DX009 (ip), vehicle: Klucel (hydroxypropylcellulose) (HPC)) 124 % of control and 103 % of control.
Turning to `Nc1cc(C(=O)Nc2ccc(C3=NCCN3)cc2)cc(C(=O)Nc2ccc(C3=NCCN3)cc2)c1`, the T/C (endpoint: mean survival time, dose: 31.3 mg/kg/injection, schedule: Q01DX010 (oral), vehicle: saline) was 115 % of control and the T/C (endpoint: mean survival time, dose: 250.0 mg/kg/injection, schedule: Q01DX010 (oral), vehicle: saline) is 159 % of control.
As to `CC(C)C(=O)C(C)(C)C(=O)N1CCCCC1`, the T/C is 96 % of control under setting [5], 103 % of control under setting [7] and 94 % of control under setting [9].
